In brackets after ≈: the same amount, converted by molar mass.
How the values were obtained:
E. coli (ATCC 10798) [1] = assay: MIC and MBC measurement with E. coli (ATCC 10798); format: cell-based, Escherichia coli; conditions: for MIC (in words): FIG. 5, strain not named
From the text: (§1) General: Microorganisms. Reference strains were purchased from the American Type Culture Collection (Rockville, Md.) or Bactrol disks from Difeo Laboratories (Detroit, Mich.). The following specific ATCC strains were used: 10798 Escherichia coli, 25922 Escherichia coli, 13883 Klebsiella pneumoniae, 27853 Pseudomonas aeruginosa, 14028 Salmonella typhimurium, 29212 Enterococcus faecalis, 25923 Staphylococcus aureus, 19615 Streptococcus pyogenes, and 90028 Candida albicans. Bacterial strains were maintained on Mueller-Hinton agar plates, and Candida albicans was maintained on Sabouraud Dextrose agar plates.
(§2) Tryptic soy broth (TSB) was made by dissolving 27.5 grams of tryptic soy broth without dextrose (DIFCO Laboratories) in 1 liter of deionized water and sterilizing at 121° C. for 15 minutes. Solid agar (TSA) plates were made by dissolving 6.4 grams of tryptic soy broth and 12 grams of agar (purified grade, Fischer Scientific) in 800 mL of deionized water and sterilizing at 121° C. for 20 minutes. Aliquots (20 mL) of the homogeneous solution were then poured in sterile plastic petri dishes (100×15 mm, Fisher Scientific). Solutions of compounds were made by dissolving the HCl salt of the respective compound into an appropriate amount of deionized and sterilized water followed by microfiltration.
(§3) Aliquots of 1 mL of the suspension were added to test tubes containing 1 mL TSB and incrementally varied concentrations of cholic acid derivatives and/or erythromycin or novobiocin. In the sensitization experiments, erythromycin or novobiocin were added 15 minutes later than the cholic acid derivatives. The samples were subjected to stationary incubation at 37° C. for 24 hours. Sample turbidity was determined by measuring absorption at 760 nm (HP 8453 UV-Visible Chemstation, Hewlett Packard). Additionally, an alliquot from each of the samples showing no measurable turbidity was subcultured on TSA plates (alliquots were diluted to provide fewer than 300 CFU). Colonies that grew on the subculture after overnight incubation were counted and the number of CFU/mL in the samples were calculated. The calculated values were compared to the number of CFU/mL in the original inoculum.

E. coli (ATCC 10798) [2] = assay: Sensitization to erythromycin (concentration lowering the MIC of erythromycin), E. coli (ATCC 10798); format: cell-based, Escherichia coli; conditions: Table 2, E. coli (ATCC 10798)
Experimental: (§4) Alternatively, “fractional inhibitory concentration (FIC)” is also useful for determination of synergy between the compounds of the invention, or the compounds in combination with known antibiotics. FICs can be performed by checkerboard titrations of compounds in one dimension of a microtiter plate, and of antibiotics in the other dimension, for example. The FIC is calculated by looking at the impact of one antibiotic on the MIC of the other and vice versa. […] Preferably, an FIC of less than 0.5 is obtained for synergism. As used herein, FIC can be determined as follows:
as §3
(§5) Ability to permeabilize outer membrane: Compounds 11, 106, and 108-114 (FIG. 1) were tested for antibiotic activity. They were also tested for the ability to permeabilize the outer membrane of Gram-negative bacteria, causing sensitization to hydrophobic antibiotics that cannot cross the outer membrane. The permeabilization of the outer membrane was measured using erythromycin and novobiocin.
(§6) The MICs of erythromycin and novobiocin against E. coli (ATCC 10798) at 70 and >500 μg/mL were measured.

E. coli (ATCC 10798) [3] = assay: Sensitization to novobiocin (concentration lowering the MIC of novobiocin), E. coli (ATCC 10798); format: cell-based, Escherichia coli; conditions: Table 3, E. coli (ATCC 10798)
Experimental: as §4, §3, §5, §6

E. coli (ATCC 25922) [4] = assay: MIC and MBC measurement with E. coli (ATCC 25922); format: cell-based, Escherichia coli
From the text: as §1, §2
as §3, with “inoculum. […]” for “inoculum.”

E. coli (ATCC 25922) [5] = assay: Sensitization to erythromycin, E. coli (ATCC 25922); format: cell-based, Escherichia coli; conditions: for FIC / concentration required to inhibit bacterial growth with antibiotic: Table 11, Escherichia coli ATCC 25922; for FIC: erythromycin (by order); for concentration required to inhibit bacterial growth with antibiotic: erythromycin (by order) at 0.5, 1.0 or 3.0 μg/mL
Experimental: FICs can be performed by checkerboard titrations of compounds in one dimension of a microtiter plate, and of antibiotics in the other dimension, for example. The FIC is calculated by looking at the impact of one antibiotic on the MIC of the other and vice versa. […] Preferably, an FIC of less than 0.5 is obtained for synergism. As used herein, FIC can be determined as follows:
as §3
Concentrations of 0.5, 1.0 or 3.0 μg/mL of these antibiotics were used, and the concentrations of the cholic acid derivatives required to inhibit bacterial growth of Gram-negative strains were determined.
(§7) Minimum inhibition concentrations (MIC) and minimum hemolytic concentrations (MHC) were measured as described in Li et al., Antimicrob. Agents. Chemother., 1999, 43, 1347.

[6] = test system: Pseudomonas aeruginosa (ATCC 27853); assay: MIC and MBC measurement with Pseudomonas aeruginosa (ATCC 27853); format: cell-based
From the text: as §1, §2, §3

[7] = test system: Pseudomonas aeruginosa (ATCC 27853); assay: Sensitization to erythromycin, Pseudomonas aeruginosa (ATCC 27853); format: cell-based; conditions: for FIC / concentration required to inhibit bacterial growth with antibiotic: Table 11, Pseudomonas aeruginosa ATCC 27853; for FIC: erythromycin (by order); for concentration required to inhibit bacterial growth with antibiotic: erythromycin (by order) at 0.5, 1.0 or 3.0 μg/mL
Experimental: as §4
as §3, with “inoculum. […]” for “inoculum.”
(§8) To measure permeabilization, the FIC values for compounds 1, 2, 5, 106, 10, 112, 133, and 134 with erythromycin, novobiocin, and rifampicin were determined. Concentrations of 0.5, 1.0 or 3.0 μg/mL of these antibiotics were used, and the concentrations of the cholic acid derivatives required to inhibit bacterial growth of Gram-negative strains were determined.

[8] = test system: Pseudomonas aeruginosa (ATCC 27853); assay: Sensitization to novobiocin, Pseudomonas aeruginosa (ATCC 27853); format: cell-based; conditions: Table 8; P. aureginosa (ATCC 27853)
Experimental: as §4
as §3, with “inoculum. […]” for “inoculum.”
as §8

[9] = test system: Klebsiella pneumonia ATCC 13883; assay: MIC and MBC measurement with Klebsiella pneumoniae ATCC 13883; format: cell-based; conditions: Table 10
From the text: as §1, §2, §3

[10] = test system: Salmonella typhimurium ATCC 14028; assay: MIC and MBC measurement with Salmonella typhimurium ATCC 14028; format: cell-based; conditions: Table 10
From the text: as §1, §2, §3

[11] = test system: Enterococcus faecalis ATCC 29212; assay: MIC and MBC measurement with Enterococcus faecalis ATCC 29212; format: cell-based; conditions: Table 10
From the text: as §1, §2, §3

[12] = test system: Staphylococcus aureus ATCC 25923; assay: MIC and MBC measurement with Staphylococcus aureus ATCC 25923; format: cell-based; conditions: Table 10; Staphylococcus aureus ATCC 25923
From the text: as §1, §2
as §3, with “inoculum. […]” for “inoculum.”

[13] = test system: Streptococcus pyrogenes ATCC 19615; assay: MIC and MBC measurement with Streptococcus pyogenes ATCC 19615; format: cell-based; conditions: Table 10
From the text: as §1, §2, §3

[14] = test system: Candida albicans ATCC 90028; assay: MIC and MBC measurement with Candida albicans ATCC 90028; format: cell-based; conditions: Table 10
From the text: as §1, §2, §3

[15] = Experimental: as §7
[16] = Table 6, P. aureginosa (ATCC 27853)
[17] = Table 10, Escherichia coli ATCC 25922
[18] = Table 10, Pseudomonas aeruginosa ATCC 27853

| Compound | MIC (in words) (E. coli (ATCC 10798) [1]) | MBC (E. coli (ATCC 25922) [4]; [17]) [mg/L] | MIC (E. coli (ATCC 25922) [4]; [17]) [mg/L] | FIC (E. coli (ATCC 25922) [5]) | concentration required to inhibit bacterial growth with antibiotic (E. coli (ATCC 25922) [5]) [µg/mL] | MBC [6, 18] [mg/L] | MIC [6, 18] [mg/L] | FIC [7] | concentration required to inhibit bacterial growth with antibiotic [7] [µg/mL] | MBC [9] [mg/L] | MIC [9] [mg/L] | MBC [10] [mg/L] | MIC [10] [mg/L] | MBC [11] [mg/L] | MIC [11] [mg/L] | MBC [12] [mg/L] | MIC [12] [mg/L] | MBC [13] [mg/L] | MIC [13] [mg/L] | MBC [14] [mg/L] | other results |
| --- | --- | --- | --- | --- | --- | --- | --- | --- | --- | --- | --- | --- | --- | --- | --- | --- | --- | --- | --- | --- | --- |
| C[C@H](CCCN(C)Cc1ccccc1)[C@H]1CC[C@H]2[C@@H]3[C@H](OCCNC(=N)N)C[C@@H]4C[C@H](OCCNC(=N)N)CC[C@]4(C)[C@H]3C[C@H](OCCNC(=N)N)[C@]12C [Compound 4] |  |  |  |  |  |  |  |  |  |  |  |  |  |  |  |  |  |  |  |  | MBC (E. coli (ATCC 10798) [1]; Table 1, E. coli (ATCC 10798)): 10 mg/L (≈ 13.3 µM); MIC (E. coli (ATCC 10798) [1]; Table 1, E. coli (ATCC 10798)): 5 mg/L (≈ 6.64 µM); MIC: concentration required to lower the MIC of erythromycin from 70 μg/mL to 1 μg/mL (E. coli (ATCC 10798) [2]): 1.5 mg/L; MBC (with erythromycin) (E. coli (ATCC 10798) [2]; erythromycin sensitization): 10 mg/L; MIC: concentration required to lower the MIC of novobiocin from >500 μg/mL to 1 μg/mL (E. coli (ATCC 10798) [3]): 5 mg/L; MBC (with novobiocin) (E. coli (ATCC 10798) [3]; novobiocin sensitization): 10 mg/L; MBC (E. coli (ATCC 25922) [4]; Table 4, E. coli (ATCC 25922)): 9 mg/L (≈ 12 µM); MIC (E. coli (ATCC 25922) [4]; Table 4, E. coli (ATCC 25922)): 6 mg/L (≈ 7.97 µM); MIC: concentration required to lower the MIC of erythromycin from 60 μg/mL to 1 μg/mL (E. coli (ATCC 25922) [5]; Table 5, E. coli (ATCC 25922)): 1 mg/L; MBC (with erythromycin) (E. coli (ATCC 25922) [5]; Table 5, E. coli (ATCC 25922), erythromycin sensitization): 5 mg/L; MBC [6, 16]: 40 mg/L (≈ 53.1 µM); MIC [6, 16]: 15 mg/L (≈ 19.9 µM); MIC: concentration required to lower the MIC of erythromycin from 240 μg/mL to 5 μg/mL ([7]; Table 7, P. aureginosa (ATCC 27853)): 5 mg/L; MBC (with erythromycin) ([7]; Table 7, P. aureginosa (ATCC 27853), erythromycin sensitization): 40 mg/L; MIC: concentration required to lower the MIC of novobiocin from >500 μg/mL to 1 μg/mL [8]: 6 mg/L |
| CCCCCCCCNCCC[C@@H](C)[C@H]1CC[C@H]2[C@@H]3[C@H](OCCCN)C[C@@H]4C[C@H](OCCCN)CC[C@]4(C)[C@H]3C[C@H](OCCCN)[C@]12C [Compound 133] | very low | 3.0 (≈ 4.43 µM) | 3.0 (≈ 4.43 µM) | 0.42 | 1.2 | 3.2 (≈ 4.73 µM) | 2.0 (≈ 2.95 µM) | 0.21 | 0.35 | 5.8 (≈ 8.57 µM) | 2.6 (≈ 3.84 µM) | 6.7 (≈ 9.89 µM) | 2.6 (≈ 3.84 µM) | 5.5 (≈ 8.12 µM) | 3.1 (≈ 4.58 µM) | 2.0 (≈ 2.95 µM) | 0.4 (≈ 0.591 µM) | 2.9 (≈ 4.28 µM) | 2.3 (≈ 3.4 µM) | 45 (≈ 66.5 µM) | MIC [14]: 31 mg/L (≈ 45.8 µM); MHC [15]: 29 µg/mL |
| CCCCCCCCNCCC[C@@H](C)[C@H]1CC[C@H]2[C@@H]3[C@H](OCCCNC(=N)N)C[C@@H]4C[C@H](OCCCNC(=N)N)CC[C@]4(C)[C@H]3C[C@H](OCCCNC(=N)N)[C@]12C [Compound 134] | very low | 0.37 (≈ 0.461 µM) | 0.31 (≈ 0.386 µM) | 0.36 | 0.37 | 2.9 (≈ 3.61 µM) | 2.0 (≈ 2.49 µM) | 0.42 | 0.70 | 3.0 (≈ 3.73 µM) | 0.84 (≈ 1.05 µM) | 1.8 (≈ 2.24 µM) | 0.81 (≈ 1.01 µM) | 5.8 (≈ 7.22 µM) | 3.0 (≈ 3.73 µM) | 1.4 (≈ 1.74 µM) | 0.59 (≈ 0.735 µM) | 3.5 (≈ 4.36 µM) | 3.5 (≈ 4.36 µM) | 76 (≈ 94.6 µM) | MIC [14]: 53 mg/L (≈ 66 µM); MHC [15]: 9.0 µg/mL |
